Where a name gives a salt, the structure may show the parent alone. Read-outs that look alike come from different tables or passages of the source.
Key:
[1] = target: T1, S1R (Cavia porcellus, UniProt Q60492); experiment: S1R binding affinity of previously published compounds; details: ln of experimental Ki S1R (nM), Table 1
Description: Table 1 Glide Gscores, calculated Ligand Efficiencies and experimentally determined Ki values of compounds 1–8 employed for the elaboration of the docking model. | column: ln(Ki)

[2] = target: T1, S1R; experiment: S1R radioligand binding assay ([3H](+)-pentazocine, guinea pig brain cortex membranes); set-up: The thawed membrane preparation of guinea pig brain cortex; from tissue; host or cells: guinea pig brain (cerebral) cortex membranes
[3] = target: T2, S2R (Rattus norvegicus, UniProt Q5U3Y7); experiment: S2R radioligand binding assay ([3H]-DTG, rat liver membranes); details: (+)-pentazocine to mask S1R
T2 construct: The assay was performed using 150 µg of rat liver homogenate; from tissue; host or cells: rat liver homogenate / membranes
T2 sequence (Q5U3Y7 1-176): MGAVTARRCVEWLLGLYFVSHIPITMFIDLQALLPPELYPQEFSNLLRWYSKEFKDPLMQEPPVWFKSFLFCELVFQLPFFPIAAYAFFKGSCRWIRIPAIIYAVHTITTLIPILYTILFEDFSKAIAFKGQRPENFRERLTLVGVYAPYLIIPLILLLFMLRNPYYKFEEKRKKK

[4] = target: AChE (Electrophorus electricus, UniProt O42275); experiment: Inhibition of AChE, modified Ellman's method; assay type: biochemical
Chain of AChE (O42275 24-633): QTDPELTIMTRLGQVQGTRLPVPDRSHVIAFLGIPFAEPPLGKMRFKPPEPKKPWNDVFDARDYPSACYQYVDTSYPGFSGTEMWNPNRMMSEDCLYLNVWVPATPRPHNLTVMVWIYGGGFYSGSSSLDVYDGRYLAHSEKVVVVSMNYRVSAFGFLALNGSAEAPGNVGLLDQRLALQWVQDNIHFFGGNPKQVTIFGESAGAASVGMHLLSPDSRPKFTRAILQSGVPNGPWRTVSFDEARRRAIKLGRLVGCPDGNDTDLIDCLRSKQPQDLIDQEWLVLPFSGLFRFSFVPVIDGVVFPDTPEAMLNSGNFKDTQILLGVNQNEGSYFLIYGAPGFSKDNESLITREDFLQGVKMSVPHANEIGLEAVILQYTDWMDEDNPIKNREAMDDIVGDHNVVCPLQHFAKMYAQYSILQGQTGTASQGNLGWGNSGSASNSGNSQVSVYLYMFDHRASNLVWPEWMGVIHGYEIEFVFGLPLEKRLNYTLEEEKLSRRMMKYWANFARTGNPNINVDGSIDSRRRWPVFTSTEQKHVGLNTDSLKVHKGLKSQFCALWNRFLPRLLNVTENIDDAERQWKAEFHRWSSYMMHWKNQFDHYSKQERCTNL
Protocol: To test the potential to inhibit AChE, a spectrophotometric procedure was adopted, based on the well-known Ellman’s method. Firstly, the target compound was tested at a concentration of 50 μM and a 72% of inhibition was observed.
AChE inhibitory activity of compound 12 was determined by the modified Ellman’s method. Briefly, a stock solution of tested compound (5.0 mM) was prepared in DMSO and diluted using 0.1 M KH2PO4/K2HPO4 buffer (pH 8.0) to afford a final concentration range between […]. Enzyme solutions were prepared by dissolving lyophilized powder in double-distilled water. […] The reaction was started by addition of […] of the 0.075 M substrate solution (acetylthiocholine iodide) and exactly 2 min after substrate addition, the absorption was measured at 25 °C at 412 nm. In enzyme-free assay systems the non-enzymatic hydrolysis of acetylthiocholine iodide was measured, and the results were employed as blank. […] Each experiment was performed in triplicate, and the mean ± standard deviation was calculated. Data from concentration-inhibition experiments of the inhibitors were calculated by nonlinear regression analysis, using the Excel program.

[5] = tested on: HeLa cells; experiment: Osmotic water permeability (AQP-mediated), stopped-flow light scattering; assay type: cell-based
Protocol: Prompted by these encouraging results, we decided to draw the antioxidant profile of compound 12, since it is well-known that oxidative stress is connected with insurgence and exacerbation of neurodegenerative diseases. In particular, the AQP-mediated antioxidant properties of RC-33 (i.e., 1-[3-(1,1′-biphen)-4-yl]butylpiperidine, our in-house developed selective S1R agonist) and 12 were evaluated in HeLa cells, following the procedures reported in our most recent studies. Briefly, osmotic water permeability was measured by a stopped-flow light scattering method and expressed as percentage of k relative. Compounds RC-33 and 12 were tested at 20 µM whereas curcumin was used as control of the goodness of the cellular assay, since its capability to affect the AQPs permeability was assessed in our previous work. The compounds were initially assessed on non-stressed HeLa cells to evaluate the capability of the compounds to affect the AQPs permeability in absence of an oxidant stimuli. […] Conversely, curcumin directly affect AQPs resulting in a significative permeability reduction (75% of k relative). RC-33, 12 and curcumin were further assessed under oxidative stress conditions induced by heating the cell cultures. […] Thus, to probe the entanglement between S1R, AQP permeability and antioxidant protection, compound 12 was assessed against stressed HeLa cells in presence of NE-100, a well-known and fully characterized S1R antagonist.
Osmotic water permeability was measured in HeLa cells suspension by the stopped-flow light scattering method as previously described.
The antioxidant effect of compound 12 on water permeability HeLa cells were divided into different groups: (1) Controls, cells incubated at room temperature (21 °C); (2) heat-stressed cells, cells subjected to heat-treatment by incubating them in a water thermostatic and shacking bath at 42 °C for 3 h; (3) heat-stressed cells pre-treated, cells heat-stressed in the presence of the compound 12 at 20 µM final concentration (dissolved in methanol). Moreover, to test the possible capacity of the molecules to affect the AQP gating in normal condition, HeLa cells were treated in the presence and in the absence of the compounds by incubating at 21 °C for 3 h.

[6] = target: T3, GluN2 subunit of NMDA (GluN1a and GluN2B subunits) (Homo sapiens, UniProt Q05586+Q13224); experiment: GluN2 binding assay ([3H]-ifenprodil, membranes of transfected L(tk-) cells)
T3 construct: expressed in transfected cells; host or cells: L(tk-) cells, stably transfected
T3 sequence (Q13224 27-1484, other chains not shown): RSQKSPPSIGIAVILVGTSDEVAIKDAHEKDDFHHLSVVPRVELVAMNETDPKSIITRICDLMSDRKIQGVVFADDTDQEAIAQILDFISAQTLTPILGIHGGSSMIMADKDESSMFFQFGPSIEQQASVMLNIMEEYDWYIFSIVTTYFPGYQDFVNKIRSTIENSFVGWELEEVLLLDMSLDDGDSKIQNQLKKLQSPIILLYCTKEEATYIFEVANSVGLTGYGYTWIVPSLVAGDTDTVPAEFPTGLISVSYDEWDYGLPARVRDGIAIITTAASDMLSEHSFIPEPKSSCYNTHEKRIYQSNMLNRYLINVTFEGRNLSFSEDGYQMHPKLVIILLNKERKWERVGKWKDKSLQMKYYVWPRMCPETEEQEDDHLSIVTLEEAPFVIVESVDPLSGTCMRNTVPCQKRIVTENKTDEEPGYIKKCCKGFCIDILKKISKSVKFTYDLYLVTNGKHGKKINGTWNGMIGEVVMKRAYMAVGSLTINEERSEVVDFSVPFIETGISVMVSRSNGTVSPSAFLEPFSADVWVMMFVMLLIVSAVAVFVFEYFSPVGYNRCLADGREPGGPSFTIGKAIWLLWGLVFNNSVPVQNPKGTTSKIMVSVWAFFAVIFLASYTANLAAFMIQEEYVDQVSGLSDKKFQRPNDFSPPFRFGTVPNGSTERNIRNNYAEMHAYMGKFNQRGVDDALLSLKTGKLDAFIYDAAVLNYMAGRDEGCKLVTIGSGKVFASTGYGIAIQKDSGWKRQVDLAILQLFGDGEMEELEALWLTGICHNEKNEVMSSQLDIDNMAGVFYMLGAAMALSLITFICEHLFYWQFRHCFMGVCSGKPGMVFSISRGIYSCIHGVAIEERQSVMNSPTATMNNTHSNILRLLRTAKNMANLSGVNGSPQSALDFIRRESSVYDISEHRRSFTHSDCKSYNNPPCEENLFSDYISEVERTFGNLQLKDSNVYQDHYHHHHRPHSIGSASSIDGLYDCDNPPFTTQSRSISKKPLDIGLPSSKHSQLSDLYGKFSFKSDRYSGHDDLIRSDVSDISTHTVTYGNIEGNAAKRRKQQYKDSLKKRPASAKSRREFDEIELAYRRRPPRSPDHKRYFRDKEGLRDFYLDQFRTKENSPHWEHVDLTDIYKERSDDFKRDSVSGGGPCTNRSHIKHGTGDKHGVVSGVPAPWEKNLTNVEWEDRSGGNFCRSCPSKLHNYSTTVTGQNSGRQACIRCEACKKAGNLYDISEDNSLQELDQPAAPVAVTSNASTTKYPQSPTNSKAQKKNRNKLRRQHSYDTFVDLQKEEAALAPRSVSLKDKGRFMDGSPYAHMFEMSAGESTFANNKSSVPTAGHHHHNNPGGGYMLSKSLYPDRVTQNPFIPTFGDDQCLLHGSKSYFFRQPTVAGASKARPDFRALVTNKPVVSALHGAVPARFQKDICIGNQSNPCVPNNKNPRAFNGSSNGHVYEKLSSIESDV

[7] = target: T1, S1R; set-up: method as in PMID 30223122; details: read-out: KiS1R; cited from earlier work
[8] = target: S2R; set-up: method as in PMID 30223122; details: read-out: KiS2R; cited from earlier work
[9] = guinea pig cerebral cortex membranes, [3H]-(+)-pentazocine, read-out: Experimental Ki S1R (nM) ± SEM
[10] = ln of experimental Ki S1R (nM), read-out: Experimental Ki S1R (converted)
[11] = Experimental Ki S1R (nM) ± SEM, guinea pig cerebral cortex membranes, [3H]-(+)-pentazocine
[12] = Experimental ln(Ki), ln of experimental Ki S1R (nM)
[13] = heat-stressed HeLa cells (42 °C 3 h), pre-treated at 20 µM
[14] = non-stressed HeLa cells, 21 °C 3 h, 20 µM

T1 sequence (Q60492 whole entry): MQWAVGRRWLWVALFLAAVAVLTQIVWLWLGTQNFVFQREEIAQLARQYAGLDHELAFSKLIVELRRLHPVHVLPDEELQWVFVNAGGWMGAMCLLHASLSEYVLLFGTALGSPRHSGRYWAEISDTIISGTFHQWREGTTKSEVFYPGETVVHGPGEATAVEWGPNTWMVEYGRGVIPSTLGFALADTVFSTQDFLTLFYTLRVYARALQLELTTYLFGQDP

`O=C(CN1CCCCC1)c1ccc(-c2ccccc2)cc1` (as salt: hydrochloride) [Compound 8, 1-(2-([1,1’-biphenyl]-4-yl)-2-oxoethyl)piperidin-1-ium hydrochloride] showed a melting point of 236 to 238 °C.
For `O=C(CN1CCCCC1)c1ccc(OCc2ccccc2)cc1` (as salt: hydrochloride) [Compound 9, 1-(2-(4-(benzyloxy)phenyl)-2-oxoethyl)piperidin-1-ium hydrochloride], the melting point was 86 to 88 °C.
`O=C(CCCN1CCCCC1)c1ccc(OCc2ccccc2)cc1` (as salt: hydrochloride) [Compound 13, 1-(4-(4-(benzyloxy)phenyl)-4-oxobutyl)piperidin-1-ium hydrochloride] gave a melting point of 188 to 190 °C.
With `O=C(CN1CCC(Cc2ccccc2)CC1)c1ccc2ccccc2c1` [Compound 1] the “ln(Ki)” value [1] was 3.296.
With `O=C(CCN1CCCCC1)c1ccc(-c2ccccc2)cc1` [Compound 2] the “ln(Ki)” value [1] was 2.708.
With `O=C(CCN1CCCCC1)c1ccc2ccccc2c1` [Compound 3] the “ln(Ki)” value [1] was 0.788.
For `O=C(CCN1CCOCC1)c1ccc(-c2ccccc2)cc1` [Compound 4], the “ln(Ki)” value [1] was 1.065.
For `O=C(CCN1CCOCC1)c1ccc2ccccc2c1` [Compound 5], the “ln(Ki)” value [1] was 2.197.
For `O=C(CN1CCC(Cc2ccccc2)CC1)c1ccc(-c2ccccc2)cc1` [Compound 6], the “ln(Ki)” value [1] was 5.829.
Molecule `O=C(CN1CCCCC1)c1ccc(-c2ccccc2)cc1` [Compound 8, 1-(2-([1,1’-biphenyl]-4-yl)-2-oxoethyl)piperidin-1-ium hydrochloride] has a Ki [2, 9] of 132 ± 55 nM and a Ki [2, 10] of 132 nM.
For `O=C(CN1CCCCC1)c1ccc(OCc2ccccc2)cc1` [Compound 9, 1-(2-(4-(benzyloxy)phenyl)-2-oxoethyl)piperidin-1-ium hydrochloride], the Ki [2, 11] was 48 ± 12 nM and the Ki [2, 12] was 48 nM.
For `O=C(CCN1CCCCC1)c1ccc(OCc2ccccc2)cc1` [Compound 10, 1-(3-(4-(benzyloxy)phenyl)-3-oxopropyl)piperidin-1-ium hydrochloride], the Ki [2, 9] was 25 ± 7 nM and the Ki [2, 10] was 25 nM.
In the case of `O=C(CCCN1CCCCC1)c1ccc2ccccc2c1` [Compound 11, 1-(4-(naphthalen-2-yl)-4-oxobutyl)piperidin-1-ium hydrochloride], the Ki [3] is reported as 50 nM, the Ki [2, 9] is reported as 4.4 ± 2.4 nM and the Ki [2, 10] is reported as 4.4 nM.
With `O=C(CCCN1CCCCC1)c1ccc(-c2ccccc2)cc1` [Compound 12, 1-(4-([1,1’-biphenyl]-4-yl)-4-oxobutyl)piperidin-1-ium hydrochloride] the inhibition at 50 µM ([4]; 50 μM) was 72%, the IC50 ([4]; Ellman's method) was 680 ± 90 nM and the “osmotic water permeability, percent of k relative” value [5, 13] was “able to prevent the water permeability reduction”. For the same molecule, the “osmotic water permeability, percent of k relative” value [5, 14] was “did not affect the water permeability”, the Ki [2, 11] was 33 ± 14 nM and the Ki [2, 12] was 33 nM. For the same molecule, the Ki [6] was 200 nM.
Work on `O=C(CCCN1CCCCC1)c1ccc(OCc2ccccc2)cc1` [Compound 13, 1-(4-(4-(benzyloxy)phenyl)-4-oxobutyl)piperidin-1-ium hydrochloride] yielded a Ki [2, 9] of 87 ± 28 nM and a Ki [2, 10] of 87 nM.
With `CCCN(CCC)CCc1ccc(OC)c(OCCc2ccccc2)c1` [NE-100] the “osmotic water permeability, percent of k relative” value [5, 13] was 78 % of k relative.
For `CC(CCN1CCCCC1)c1ccc(-c2ccccc2)cc1` (stereo not shown) [RC-33, 1-[3-(1,1′-biphen)-4-yl]butylpiperidine], the “osmotic water permeability, percent of k relative” value [5, 13] is listed as “able to prevent the water permeability reduction”, the “osmotic water permeability, percent of k relative” value [5, 14] is listed as “comparable” and the Ki [7] is listed as 1.8 ± 0.1 nM. The Ki [8] was 45 ± 16 nM.
For `COc1cc(/C=C/C(=O)CC(=O)/C=C/c2ccc(O)c(OC)c2)ccc1O` [curcumin], the “osmotic water permeability, percent of k relative” value [5, 13] was “not able to protect the AQPs’ permeability properties” and the “osmotic water permeability, percent of k relative” value [5, 14] was 75 % of k relative.

Reference: article PMC7589021, “Setup and Validation of a Reliable Docking Protocol for the Development of Neuroprotective Agents by Targeting the Sigma-1 Receptor (S1R)” (International Journal of Molecular Sciences, 2020)
